Data reported in patent US5447957A, “Anti-inflammatory compounds” (SmithKline Beecham Corp., priority 1994, dated 1995).
Like-named read-outs stand apart in the source and are kept apart here.

Columns and labels:
human neutrophils = assay: Assay (d): Production of Platelet-Activating Factor (PAF), A23187-challenged neutrophils; type: cell-based; settings: A23187 2 μM
Procedure: Assay (d): Assay for Production of Platelet-Activating Factor (PAF)
Blood is obtained from normal humans and neutrophils were isolated as described for the arachidonic acid release assay, above. The final leukocyte preparation should be of greater than 95% purity and viability.
Neutrophils were suspended in PBS at concentrations of 5 to 20×10^6 cells per ml. Cells were added to test tubes and treated with the desired compounds for 5 to 10 minutes, then challenged with calcium ionophore A23187, 2 μM and 20-30 μCi of [3H]acetic acid (NEN-Dupont, Boston, Mass.), or the vehicle of PBS with 0.25-1 mg/ml. After 5 to 20 minutes, the reactions were terminated by addition of an equal volume of chloroform:methanol (1:2, v/v) to the samples and the lipids were extracted by addition of equal volumes of chloroform and distilled water. The samples were vortexed and centrifuged at high speed and the chloroform layer removed to a clean tube.
The chloroform from each tube was evaporated to dryness and the material suspended in a small volume of chloroform or chloroform:methanol (25-100 μl) and the total material spotted on a Silica TLC plate. The plates were developed in chloroform/methanol/acetic acid/water (50:25:8:4, v/v) visualized by radioscanning (Bioscan) and the product, [^3 H]PAF, was scraped and quantified by liquid scintillation spectroscopy. […]

human monocytes = assay: Assay (f): stimulated eicosanoid (PGE2, LTC4) release by human monocytes; type: cell-based; settings: Monocyte, 0.25 h, A23187 1 μM, 15 min
Procedure: Assay (f): Measurement of stimulated eicosanoid release by human monocytes.
Leukocyte-rich leukopaks obtained from Biological Specialties (Lansdale, Pa.) were collected from male volunteers who were not taking anti-inflammatory drugs. Leukopaks were centrifuged (90× g for 15 min) twice to remove the platelet-rich plasma. The cell pellet was washed by centrifugation and resuspended in HBSS without Ca^2+ or Mg^2+. Histopaque 1077 was layered under the cell suspension and centrifuged at 400× g for 30 min to obtain the buffy coat. The interfacial buffy coat, containing monocytes and lymphocytes, was removed and saved. The buffy coat was washed twice with HBSS without Ca^2+ or Mg^2+ by centrifugation. The cell pellet (4-6×10^8 cells/30 mls) was resuspended in iso-osmotic media (RPMI-1640, 10% heat inactivated fetal bovine serum (FBS), 0.2 mM L-glutamine, 2.5 mM HEPES) and layered over an equal volume of 46% Percol mixture (10X PBS/Percol; 9.25/0.75) and 54% iso-osmotic media and centrifuged for 30 min at 1000× g (Marshall and Roshak, Biochem. Cell Biol. 71: 331-339, 1993). The monocyte population located at the interface of the Percoll gradient was removed and washed twice in HBSS without Ca^2+ or Mg^2+.
Monocytes (5×10^6 /ml) were incubated as a suspension in serum-free RPMI- 1640 medium containing the vehicle DMSO (<1%) or drug for 30 min at […] after which vehicle or stimuli was added for the indicated time. The stimulating agent is solubilized in DMSO and appropriate vehicle controls were included in all experiments. The amount of stimuli was chosen from the linear portion of a concentration versus product curve usually representing 60-80% maximal stimulation over the indicated incubation time at 37° C. (A23187, 1 μM,(15 min). The reaction was terminated by reduction of pH through addition of citric acid and centrifugation (10 min, 400× g, 4° C.). Cell viability was monitored before and after experiments using trypan blue exclusion. The cell-free media was decanted and stored at -70° C. until analyzed. Prostaglandin E2 and LTC4 were directly measured in cell-free media using enzyme immunoassay (EIA) kits purchased from Caymen Chemical Co. (Ann Arbor, Mich.). Sample or standard dilutions were made with appropriate media and analyzed in triplicate. Results were obtained by extrapolation from a standard curve prepared in the media and expressed as pg or ng/ml of sample.

[1] = tested on: TPA-induced Mouse Ear Inflammation; assay: Assay (g): TPA-induced Mouse Ear Inflammation (ear edema and MPO); type: in vivo; settings: "this animal model"; topical
Text: The ability of compounds that inhibit CoA-IT and/or PLA2 to affect in vivo inflammatory responses may be assessed. Inflammatory responses are induced in the mouse ear by the topical application of a pro-inflammatory agent, such as 12-0-tetradecanoylphorbol 13-acetate (assay g). This produces an edematous response, as measured by increases in ear thickness, as well as increased inflammatory cellular infiltrate, as measured by increases in myeloperoxidase activity (as described in the methods). To further validate the mechanism of action inflammation induced by the direct adminstration of arachidonic acid can be used. In this case compounds altering arachidonic acid mobilization or liberation should be with our effect.
Male Balb/c inbred mice were obtained from Charle River Breeding Laboratories (Kingston, N.Y.). Within a single experiment mice (22-25 g) were age-matched. These in vivo experiments typically involved use of 5-6 animals/group.
TPA (12-0-tetradecanoylphorbol 13-acetate) (Sigma Chemical Company) in acetone ([…]) was applied to the inner and outer surfaces of the left ear of BALB/c male mice. The thickness of both ears was then measured with a dial micrometer (Mitutoyo, Japan) at both 2 and 4 hours after treatment, and the data expressed as the change in thickness (10^-3 cm) between treated and untreated ears. […] After measuring the edema, the inflammed left ears were removed and stored at -70° C. until they were assayed for MPO (myeloperoxidase) activity where appropriate.
On the day of the assay, partially thawed ear tissues were minced and then homogenized (10% w/v) with a Tissumizer homogenizer (Tekmar Co.) in 50 mM phosphate buffer (pH 6) containing 0.5% HTAB. The tissue homogenates were taken through three cycles of freeze-thaw, followed by brief sonication (10 sec). The method of Bradley et al. was used with modifications as described. The appearance of a colored product from the MPO-dependent reaction of o-dianisidine (0.167 mg/ml; Sigma) and hydrogen peroxide (0.0005%; Sigma) was measured spectrophotometrically at 460 nm. Supernatant MPO activity was quantified kinetically (change in absorbance measured over 3 min, sampled at 15-sec intervals) using a Beckman DU-7 spectrophotometer and a Kinetics Analysis package (Beckman Instruments, Inc.). One unit of MPO activity is defined as that degrading one micromole of peroxide per minute at 25° C.
Statistical analysis was done using Student's "t" test. The ED50 are values which cause a 50% inhibition of the inflammatory response and are calculated by regression analysis of the dose response data.

[2] = read-out: IC50 for LTC4 release

| IC50 (human monocytes; [2]) [µM] | IC50 (human monocytes; read-out: IC50 of PGE2 release) [µM] | Structure (SMILES) | inhibition of PAF production (human neutrophils) | inhibition in mouse ear inflammation animal model [1] |
| --- | --- | --- | --- | --- |
| 1 to 2 | > 10 | O=C(Nc1cc(C(F)(F)F)cc(C(F)(F)F)c1)Nc1cc(C(F)(F)F)ccc1Oc1ccccc1C(=O)O [Example 7, 2-[2-[3-[3,5-Bis(trifluoromethyl)phenyl]ureido]-4-trifluoromethylphenoxy]benzoic acid] | positive activity | positive inhibition |
| ~1 | 0.1 to 1 | O=C(Nc1cc(C(F)(F)F)cc(C(F)(F)F)c1)Nc1ccccc1Oc1ccccc1C(=O)O [Example 2, 2-[2-[3-[3,5-Bis (trifluoromethyl)phenyl]ureido]phenoxy]benzoic acid] | positive activity | positive inhibition |
